Measurements as given in patent US11214594B2, “Antimicrobial peptide having synergistic antibacterial effect with antibiotics on multidrug resistant bacteria, and use thereof” (priority 2016, dated 2022).
Where a SMILES comes first, the peptide text is derived from it. [ ]: non-standard residue; d: D form.

Legend:
MDREC 1238 = assay type: cell-based, Escherichia coli
How it was run: (§1)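 Broth microdilution in MH medium: strains diluted to 2×10^6 CFU were mixed with equal volumes of twofold serial peptide dilutions in MH medium. MIC was taken as the lowest peptide concentration preventing bacterial growth.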

P. aeruginosa = experiment: microbe, parasite or virus in culture; assay type: cell-based, Pseudomonas aeruginosa
How it was run: as §1

MDRPA 2002 = assay type: cell-based, Pseudomonas aeruginosa
How it was run: as §1

MDRPA 2003 = assay type: cell-based, Pseudomonas aeruginosa
How it was run: as §1

A. baumannii = experiment: microbe, parasite or virus in culture; assay type: cell-based, Acinetobacter baumannii
How it was run: as §1

MDRAB 12035 [1] = experiment: microbe, parasite or virus in culture; assay type: cell-based, Acinetobacter baumannii
How it was run: as §1

S. typhimurium = experiment: microbe, parasite or virus in culture; assay type: cell-based, Salmonella typhimurium
How it was run: as §1

MDRST 8009 = assay type: cell-based, Salmonella typhimurium; details: agent alone
How it was run: as §1

S. epidermidis = experiment: microbe, parasite or virus in culture; assay type: cell-based, Staphylococcus epidermidis
How it was run: as §1

MRSA 3114 = assay type: cell-based, Staphylococcus aureus; details: 3114
How it was run: as §1

MRSA 3126 = assay type: cell-based, Staphylococcus aureus; details: 3126
How it was run: as §1

MDRAB 12035 [2] = experiment: MIC of antibiotic during combined treatment with antimicrobial peptide; assay type: cell-based, Acinetobacter baumannii
How it was run: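 Antibiotic MIC came from antibiotic dilutions added to bacteria (2×10^6 CFU/ml, MH medium) already combined with peptide serially diluted 2:1 from its own MIC. Swapping the roles of the two agents gave the peptide MIC.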

[3] = peptide treatment concentration 1 μg/ml
[4] = peptide treatment concentration 2 μg/ml
[5] = peptide treatment concentration 4 μg/ml
[6] = peptide treatment concentration 6 μg/ml
[7] = peptide treatment concentration 8 μg/ml
[8] = peptide treatment concentration 16 μg/ml
[9] = peptide treatment concentration 32 μg/ml
[10] = peptide treatment concentration 64 μg/ml

CC[C@H](C)[C@H](NC(=O)[C@H](CCCCN)NC(=O)[C@H](Cc1c[nH]c2ccccc12)NC(=O)[C@@H](N)CCCNC(=N)N)C(=O)N[C@@H](Cc1ccccc1)C(=O)N[C@@H](CCCCN)C(=O)N[C@@H](CCCCN)C(=O)N[C@H](C(=O)N[C@H](CCCCN)C(=O)N[C@@H](CCCCN)C(=O)N[C@@H](CC(C)C)C(=O)N[C@@H](CC(C)C)C(=O)N[C@@H](Cc1c[nH]cn1)C(=O)N[C@@H](CO)C(=O)N[C@@H](C)C(=O)N[C@@H](CCCCN)C(=O)N[C@@H](CCCCN)C(=O)N[C@@H](Cc1c[nH]c2ccccc12)C(N)=O)[C@@H](C)CC [PapMA-16, RWK IFK KIk KLL HSA KKW-NH2] (H-RWKIFKKI[dK]KLLHSAKKW-NH2; N-terminus assumed)
8 µg/mL: Linezolid MIC during combined treatment with peptide (MDRAB 12035 [2]; [8]) | Vancomycin MIC during combined treatment with peptide (MDRAB 12035 [2]; [8])
0 µg/mL: Erythromycin MIC during combined treatment with peptide (MDRAB 12035 [2]; [9]) | Linezolid MIC during combined treatment with peptide (MDRAB 12035 [2]; [9]) | Vancomycin MIC during combined treatment with peptide (MDRAB 12035 [2]; [9]) | Erythromycin MIC during combined treatment with peptide (MDRAB 12035 [2]; [10]) | Linezolid MIC during combined treatment with peptide (MDRAB 12035 [2]; [10]) | Vancomycin MIC during combined treatment with peptide (MDRAB 12035 [2]; [10])
1 µg/mL: Erythromycin MIC during combined treatment with peptide (MDRAB 12035 [2]; [7])
0.25 µg/mL: Erythromycin MIC during combined treatment with peptide (MDRAB 12035 [2]; [8])
64 µg/mL: Minimal inhibitory concentration MIC (MDREC 1238) | Minimal inhibitory concentration MIC (P. aeruginosa) | Minimal inhibitory concentration MIC (MDRPA 2002) | Minimal inhibitory concentration MIC (MDRPA 2003) | Minimal inhibitory concentration MIC (S. typhimurium) | Minimal inhibitory concentration MIC (MDRST 8009) | Vancomycin MIC during combined treatment with peptide (MDRAB 12035 [2]; [5])
>128 µg/mL: Minimal inhibitory concentration MIC (S. epidermidis) | Minimal inhibitory concentration MIC (MRSA 3114) | Minimal inhibitory concentration MIC (MRSA 3126) | Linezolid MIC during combined treatment with peptide (MDRAB 12035 [2]; [3]) | Vancomycin MIC during combined treatment with peptide (MDRAB 12035 [2]; [3]) | Linezolid MIC during combined treatment with peptide (MDRAB 12035 [2]; [4]) | Vancomycin MIC during combined treatment with peptide (MDRAB 12035 [2]; [4])
16 µg/mL: Erythromycin MIC during combined treatment with peptide (MDRAB 12035 [2]; [5]) | Linezolid MIC during combined treatment with peptide (MDRAB 12035 [2]; [7]) | Vancomycin MIC during combined treatment with peptide (MDRAB 12035 [2]; [7])
128 µg/mL: Linezolid MIC during combined treatment with peptide (MDRAB 12035 [2]; [5])
32 µg/mL: Minimal inhibitory concentration MIC (A. baumannii) | Peptide MIC, peptide alone (A. baumannii) | Minimal inhibitory concentration MIC (MDRAB 12035 [1]) | Peptide MIC, peptide alone (MDRAB 12035 [1]) | Erythromycin MIC during combined treatment with peptide (MDRAB 12035 [2]; [3]) | Erythromycin MIC during combined treatment with peptide (MDRAB 12035 [2]; [4]) | Linezolid MIC during combined treatment with peptide (MDRAB 12035 [2]; [6]) | Vancomycin MIC during combined treatment with peptide (MDRAB 12035 [2]; [6])
4 µg/mL: Erythromycin MIC during combined treatment with peptide (MDRAB 12035 [2]; [6])

CC[C@H](C)[C@H](NC(=O)[C@H](CCCCN)NC(=O)[C@H](Cc1c[nH]c2ccccc12)NC(=O)[C@@H](N)CCCNC(=N)N)C(=O)N[C@@H](Cc1ccccc1)C(=O)N[C@@H](CCCCN)C(=O)N[C@@H](CCCCN)C(=O)N[C@H](C(=O)N[C@H](CCCCN)C(=O)N[C@@H](CCCCN)C(=O)N[C@@H](CC(C)C)C(=O)N[C@@H](CC(C)C)C(=O)N[C@@H](Cc1c[nH]cn1)C(=O)N[C@@H](CCCCN)C(=O)N[C@@H](C)C(=O)N[C@@H](CCCCN)C(=O)N[C@@H](CCCCN)C(=O)N[C@@H](Cc1c[nH]c2ccccc12)C(N)=O)[C@@H](C)CC [PapMA-18, RWK IFK KIk KLL HKA KKW-NH2] (H-RWKIFKKI[dK]KLLHKAKKW-NH2; N-terminus assumed)
64 µg/mL: Minimal inhibitory concentration MIC (MDREC 1238) | Minimal inhibitory concentration MIC (MDRPA 2003) | Minimal inhibitory concentration MIC (MDRST 8009) | Linezolid MIC during combined treatment with peptide (MDRAB 12035 [2]; [5])
0 µg/mL: Erythromycin MIC during combined treatment with peptide (MDRAB 12035 [2]; [9]) | Linezolid MIC during combined treatment with peptide (MDRAB 12035 [2]; [9]) | Vancomycin MIC during combined treatment with peptide (MDRAB 12035 [2]; [9]) | Erythromycin MIC during combined treatment with peptide (MDRAB 12035 [2]; [10]) | Linezolid MIC during combined treatment with peptide (MDRAB 12035 [2]; [10]) | Vancomycin MIC during combined treatment with peptide (MDRAB 12035 [2]; [10])
2 µg/mL: Erythromycin MIC during combined treatment with peptide (MDRAB 12035 [2]; [7])
128 µg/mL: Vancomycin MIC during combined treatment with peptide (MDRAB 12035 [2]; [5])
16 µg/mL: Erythromycin MIC during combined treatment with peptide (MDRAB 12035 [2]; [5]) | Linezolid MIC during combined treatment with peptide (MDRAB 12035 [2]; [7]) | Vancomycin MIC during combined treatment with peptide (MDRAB 12035 [2]; [7]) | Vancomycin MIC during combined treatment with peptide (MDRAB 12035 [2]; [8])
>128 µg/mL: Minimal inhibitory concentration MIC (S. epidermidis) | Minimal inhibitory concentration MIC (MRSA 3114) | Minimal inhibitory concentration MIC (MRSA 3126) | Linezolid MIC during combined treatment with peptide (MDRAB 12035 [2]; [3]) | Vancomycin MIC during combined treatment with peptide (MDRAB 12035 [2]; [3]) | Linezolid MIC during combined treatment with peptide (MDRAB 12035 [2]; [4]) | Vancomycin MIC during combined treatment with peptide (MDRAB 12035 [2]; [4])
0.5 µg/mL: Erythromycin MIC during combined treatment with peptide (MDRAB 12035 [2]; [8])
8 µg/mL: Linezolid MIC during combined treatment with peptide (MDRAB 12035 [2]; [8])
4 µg/mL: Erythromycin MIC during combined treatment with peptide (MDRAB 12035 [2]; [6])
32 µg/mL: Minimal inhibitory concentration MIC (P. aeruginosa) | Minimal inhibitory concentration MIC (MDRPA 2002) | Minimal inhibitory concentration MIC (A. baumannii) | Peptide MIC, peptide alone (A. baumannii) | Minimal inhibitory concentration MIC (MDRAB 12035 [1]) | Peptide MIC, peptide alone (MDRAB 12035 [1]) | Minimal inhibitory concentration MIC (S. typhimurium) | Erythromycin MIC during combined treatment with peptide (MDRAB 12035 [2]; [3]) | Erythromycin MIC during combined treatment with peptide (MDRAB 12035 [2]; [4]) | Linezolid MIC during combined treatment with peptide (MDRAB 12035 [2]; [6]) | Vancomycin MIC during combined treatment with peptide (MDRAB 12035 [2]; [6])
